Measurements from paper PMC12114947, “Evaluation of Violacein Metabolic Stability and Metabolite Identification in Human, Mouse, and Rat Liver Microsomes” (Pharmaceutics, 2025).
Converted amounts (≈) assume the structure as drawn.

How the values were obtained:
[1] = Identification of violacein metabolites in HLMs by LC-QTOF; assay type: in vitro ADME, human; conditions: all samples after 120 min of reaction, 105 µM violacein, 5 mg/mL protein
Description: (§1) The metabolism of violacein was investigated using HLMs and RLMs, by incubating the samples for 120 min under four conditions (n = 1): zero sample, phase I-only incubation, phase I and II incubation, and phase II-only incubation, as described by Godoi et al..
(§2) For all samples, 25 µL of the 843 µM violacein stock solution was added to propylene tubes and evaporated to dryness under a nitrogen stream. The dried residue was then reconstituted with 2 µL of methanol, ensuring that the final organic solvent concentration remained below 1% to minimize any potential impact on microsomal activity, as described by Jia et al..
(§3) To assess phase I metabolism, 148 μL of an NADPH-regenerating system containing 1.1 mM NADP+, 10 mM glucose-6-phosphate, 1 U/mL glucose-6-phosphate dehydrogenase, 5 mM sodium citrate, and 66 mM magnesium chloride in 100 mM phosphate buffer (pH 7.4) were added to the tubes. The solutions were pre-incubated for 5 min at 37 °C and 300 rpm in an MTC 100 thermo shaker incubator, and metabolic reactions were initiated by adding 50 μL of HLMs or RLMs (20 mg/mL), to yield final concentrations of 105 µM violacein and 5 mg of microsomal protein/mL. […]
(§4) The acquired chromatograms and mass spectra were analyzed using Insight Explore software version 1.0.0.0 (Shimadzu, Kyoto, Japan). […]

[2] = test system: Trichophyton rubrum; design: method as in PMID 26428920; conditions: cited from earlier work
[3] = test system: HT29 cells; design: method as in PMID 16889929; conditions: cited from earlier work
[4] = buffer, 720 h, pH 5; cited from earlier work
[5] = test system: experimental autoimmune encephalomyelitis (EAE); design: method as in PMID 25938431; conditions: EAE mice, three days of treatment, intraperitoneal 3.5 mg/kg; reduced from 4; cited from earlier work
[6] = test system: Candida tropicalis; design: method as in PMID 26428920; conditions: cited from earlier work
[7] = Identification of violacein metabolites in RLMs by LC-QTOF; assay type: in vitro ADME, rat; conditions: all samples after 120 min of reaction, 105 µM violacein, 5 mg/mL protein
Description: as §1, §2, §3, §4

For `O=C1NC(c2c[nH]c3ccc(O)cc23)=C/C1=C1\C(=O)Nc2ccccc21` [violacein], the Violacein metabolized [1] is listed as 30%, the MIC [2] is listed as 2 µg/mL (≈ 5.83 µM) and the IC50 [3] is listed as greater than 10 µM. The “Residual pigment remaining unaltered” value [4] was “more than 80%”, the Maximum clinical score [5] was 2 and the MIC [6] was 16 µg/mL (≈ 46.6 µM). For the same compound, the Violacein metabolized [7] was “Approximately 50%”.
